Measured values: patent publication US20260315434A1, “USE OF GUAIACOL SESQUITERPENE LACTONE DERIVATIVES” (NANJING UNIVERSITY OF CHINESE MEDICINE, priority 2023, published 2026)

How the values were obtained:
[1] = tested on: rat arthritis; settings: in vivo; cited from earlier work
[2] = tested on: heart failure; settings: human, in vivo; cited from earlier work
[3] = Safety evaluation, mouse body weight (30 days oral); type: in vivo, C57BL/6 mice; set-up: Mouse body weight: unit not given here; settings: for Mouse body weight: oral gavage once daily
Excerpt: (§1) The Normal group received an equal volume of solvent (saline).

[4] = Safety evaluation, mouse activity status (30 days oral); type: in vivo, C57BL/6 mice; settings: 500, 1000 mg/kg oral
Excerpt: as §1

[5] = tested on: inflammatory factors Il1b, Il6 and Hscrp in serum; test: HFD-induced atherosclerosis, serum Il1b, Il6 and Hscrp; type: in vivo, APOE−/− mice; set-up: Serum Il1b / Serum Il6 / Serum Hscrp: unit not given here; settings: for Serum Hscrp / Serum Il1b / Serum Il6: 8 weeks
Protocol: Experimental animals: C57BL and APOE^−/− mice, male, 8 weeks old, purchased from GemPharmatech LLC. Production license number: SCXK(Su)2023-0009. […] They were acclimated for 7 days before use in experiments.
Normal group (C57BL), model group (HFD/APOE^−/−), positive control drug VTX3232 (10 mg/kg) group, compound 103 (0.3, 1, 3, 10 and 30 mg/kg) group, with 6 mice per group. Oral administration was performed continuously for 8 weeks.
Allow blood to stand at room temperature for 2 hours, then centrifuge at 3000 rpm for 20 minutes. Aspirate the serum, aliquot it, and store at −70° C. for future use. After blood collection, euthanize mice by cervical dislocation. Open the abdominal cavity, remove heart and aorta. […] Store remaining tissues at −80° C. for future use.
Serum Total Il1, Il6 and Hscrp Assay: For each sample, 10 μL of serum was used for […]. Samples were added sequentially strictly according to the kit instructions, incubated at 37° C., and measured for absorbance values using an enzyme-linked immunosorbent assay (ELISA) reader. The concentration levels of each indicator were calculated based on the standard curve.

In the case of `C=C1C(=O)O[C@@H]2[C@H]3C(C)=CC[C@@]34O[C@@]4(C)CC[C@@H]12` [Arg, Arglabin, reference compound], the joint swelling [1] is given as “significantly suppressed”, the “serum levels of TNF-α, IL-1β, and IL-6” value [1] is given as “lowered” and the cardiac inflammation [2] is given as “inhibited”.

With `CN(C)C[C@@H]1C(=O)O[C@H]2[C@H]1CC[C@@]1(C)C[C@]13CC[C@@](C)(O)[C@H]23` [Compound 20] the body weight ([3]; 500, 1000 mg/kg oral, 30 days, P>0.05) was “no significant effect”, the Mouse body weight ([3]; female, 500 mg/kg, day 1) was 100.00 ± 0.00 and the Mouse body weight ([3]; female, 500 mg/kg, day 5) was 100.41 ± 0.43. It also gave a Mouse body weight ([3]; female, 500 mg/kg, day 10) of 99.01 ± 1.34, a Mouse body weight ([3]; female, 500 mg/kg, day 15) of 100.03 ± 0.95 and a Mouse body weight ([3]; female, 500 mg/kg, day 20) of 100.52 ± 0.74. It also gave a Mouse body weight ([3]; female, 500 mg/kg, day 25) of 99.81 ± 1.72, a Mouse body weight ([3]; female, 500 mg/kg, day 30) of 99.79 ± 2.55 and a Mouse body weight ([3]; female, 1000 mg/kg, day 1) of 100.00±0.00. For the same compound, the Mouse body weight ([3]; female, 1000 mg/kg, day 5) was 101.96 ± 0.55, the Mouse body weight ([3]; female, 1000 mg/kg, day 10) was 101.80 ± 2.02 and the Mouse body weight ([3]; female, 1000 mg/kg, day 15) was 99.77 ± 2.60. It also gave a Mouse body weight ([3]; female, 1000 mg/kg, day 20) of 101.04 ± 2.13, a Mouse body weight ([3]; female, 1000 mg/kg, day 25) of 99.06 ± 3.56 and a Mouse body weight ([3]; female, 1000 mg/kg, day 30) of 100.67 ± 0.91. The Mouse body weight ([3]; male, 500 mg/kg, day 1) was 100.00 ± 0.00, the Mouse body weight ([3]; male, 500 mg/kg, day 5) was 100.31 ± 0.89 and the Mouse body weight ([3]; male, 500 mg/kg, day 10) was 101.51 ± 4.00. The Mouse body weight ([3]; male, 500 mg/kg, day 15) was 99.27 ± 2.11, the Mouse body weight ([3]; male, 500 mg/kg, day 20) was 101.29 ± 0.40 and the Mouse body weight ([3]; male, 500 mg/kg, day 25) was 98.93 ± 0.60. It also gave a Mouse body weight ([3]; male, 500 mg/kg, day 30) of 100.10 ± 1.08, a Mouse body weight ([3]; male, 1000 mg/kg, day 1) of 100.00 ± 0.00 and a Mouse body weight ([3]; male, 1000 mg/kg, day 5) of 101.48 ± 1.30. It also gave a Mouse body weight ([3]; male, 1000 mg/kg, day 10) of 101.22 ± 0.84, a Mouse body weight ([3]; male, 1000 mg/kg, day 15) of 100.47 ± 1.28 and a Mouse body weight ([3]; male, 1000 mg/kg, day 20) of 100.15 ± 2.76. The Mouse body weight ([3]; male, 1000 mg/kg, day 25) was 98.35 ± 1.14, the Mouse body weight ([3]; male, 1000 mg/kg, day 30) was 100.71 ± 0.53 and the “activity status after each administration” value [4] was “relatively reduced activity and lethargy”. For the same compound, the “time to recovery to normal activity” value [4] was 1 to 2 h and the “coat luster, behavioral activity, or mental state vs. Normal group” value ([4]; 30 days) was “no significant differences”.

With `CC1=C2CC[C@@](C)(OC(=O)N3CCCC3)[C@@H]2[C@H]2OC(=O)[C@@H](CN3CCCC3)[C@@H]2CC1` [Compound 103] the “Serum Hscrp” value ([5]; 0.3 mg/kg, oral) was 9.67 ± 1.25, the “Serum Il1b” value ([5]; 0.3 mg/kg, oral) was 277.35 ± 176.70 and the “Serum Il6” value ([5]; 0.3 mg/kg, oral) was 95.42 ± 26.76. For the same compound, the “Serum Hscrp” value ([5]; 1 mg/kg, oral) was 7.25 ± 0.77, the “Serum Il1b” value ([5]; 1 mg/kg, oral) was 255.38 ± 185.47 and the “Serum Il6” value ([5]; 1 mg/kg, oral) was 90.32 ± 8.01. For the same compound, the “Serum Hscrp” value ([5]; 3 mg/kg, oral) was 6.67 ± 0.46, the “Serum Il1b” value ([5]; 3 mg/kg, oral) was 173.42 ± 132.43 and the “Serum Il6” value ([5]; 3 mg/kg, oral) was 82.19 ± 4.83. The “Serum Hscrp” value ([5]; 10 mg/kg, oral) was 5.80 ± 0.41, the “Serum Il1b” value ([5]; 10 mg/kg, oral) was 77.91 ± 41.08 and the “Serum Il6” value ([5]; 10 mg/kg, oral) was 50.08 ± 9.76. For the same compound, the “Serum Hscrp” value ([5]; 30 mg/kg oral) was 4.88 ± 0.63, the “Serum Il1b” value ([5]; 30 mg/kg oral) was 62.93 ± 23.79 and the “Serum Il6” value ([5]; 30 mg/kg oral) was 34.82 ± 20.80. The “serum Il1b, Il6 and Hscrp levels compared with the model group” value ([5]; 0.3, 1, 3, 10, 30 mg/kg oral) was “markedly lower”.
